This is an account of results in US6656911B2, “Serine protease inhibitors” (Cortech, Inc., priority 1994, dated 2003).

The assay concerns the target T1, elastase derived from human sputum (HSE) (Homo sapiens, UniProt P08246).
T1 construct: prepared from commercially available HSE (875 U/mg protein, SE-563, Elastin Product Co., Inc., Missouri, USA); purchased Elastin Product Co., Inc., Missouri, USA SE-563; host or cells: human sputum (natural enzyme)
T1 sequence (P08246 30-247 limits assumed): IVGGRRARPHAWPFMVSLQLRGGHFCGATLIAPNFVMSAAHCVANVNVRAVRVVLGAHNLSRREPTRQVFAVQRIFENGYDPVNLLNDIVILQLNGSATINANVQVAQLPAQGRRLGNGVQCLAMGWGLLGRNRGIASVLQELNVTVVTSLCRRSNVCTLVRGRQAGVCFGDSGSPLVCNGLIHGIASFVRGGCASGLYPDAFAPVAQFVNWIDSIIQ
Nature of the assay: In vitro inhibition of elastase (ONO-PO series). It is filed as biochemical. The settings on record: substrate N-methoxysuccinyl-Ala-Ala-Pro-Val-p-nitroaniline, 37° C., pH 8.0, IC50 converted to Ki by Dixson plot.

Turning to `CC(C)[C@@H](NC(=O)Cn1c(-c2ccccc2)nccc1=O)C(=O)c1nnc(C(C)(C)C)o1` [ONO-PO-732, 2-[6-Oxo-2-phenyl-1,6-dihydro-1-pyrimidinyl]-N-[1-(2-[5-tert-butyl-1,3,4-oxadiazolyl]carbonyl)-2-(R)-methylpropyl]acetamide], the Ki came to 0.0622 µM.
For `CC(C)[C@H](NC(=O)CN1C(=O)N[C@H](Cc2c[nH]c3ccccc23)C1=O)C(=O)c1nnc(C(C)(C)C)o1` [ONO-PO-723, 4-(R)-(3-Indolemethylene)-2,5-imidazolidinedione-N-[1-(2-[5-tert-butyl-1,3,4-oxadiazolyl]carbonyl)-2-(S)-methylpropyl]acetamide], the Ki came to 0.163 µM.
The result for `COc1ccc(-c2nnc(C(=O)[C@@H](NC(=O)Cn3c(-c4ccc(F)cc4)ncc(N)c3=O)C(C)C)o2)cc1` [ONO-PO-699, 2-[5-Amino-6-oxo-2-(4-fluorophenyl)-1,6-dihydro-1-pyrimidinyl]-N-[1-(2-[5-(4-methoxyphenyl)-1,3,4-oxadiazolyl]carbonyl)-2-(S)-methylpropyl]acetamide] reads 0.0212 µM; that for `CC(C)[C@H](NC(=O)CN1C(=O)N[C@H](C(C)C)C1=O)C(=O)c1nnc(C(C)(C)c2ccccc2)o1` [ONO-PO-720, 4-(R)-Isopropyl-2,5-imidazolidinedione-N-[1-(2-[5-(α,α-dimethylbenzyl)-1,3,4-oxadiazolyl]carbonyl)-2-(S)-methylpropyl]acetamide], 0.0259 µM.
In turn, `CC(C)[C@H](NC(=O)Cn1c(-c2ccc(F)cc2)ncc(N)c1=O)C(=O)c1nnc(-c2ccccc2)o1` [ONO-PO-694, 2-[5-Amino-6-oxo-2-(4-fluorophenyl)-1,6-dihydro-1-pyrimidinyl]-N-[1-(2-[5-phenyl-1,3,4-oxadiazolyl]carbonyl)-2-(S)-methylpropyl]acetamide] registered a Ki of 0.0248 µM.
The result for `CC(C)[C@H](NC(=O)Cn1c(-c2ccccc2)cccc1=O)C(=O)c1nnc(C(C)(C)c2ccccc2)o1` [ONO-PO-726, 2-[6-Oxo-2-phenyl-1,6-dihydro-1-pyridinyl]-N-[1-(2-[5-(α,α-dimethylbenzyl)-1,3,4-oxadiazolyl]carbonyl)-2-(S)-methylpropyl]acetamide] reads 0.59 µM.
Turning to `CC(C)[C@H](NC(=O)Cn1c(-c2ccccc2)nccc1=O)C(=O)c1nnc(C2(C)CC2)o1` [ONO-PO-735, 2-[6-Oxo-2-phenyl-1,6-dihydro-1-pyrimidinyl]-N-[1-(2-[5-(1-methylcyclopropyl)-1,3,4-oxadiazolyl]carbonyl)-2-(S)-methylpropyl]acetamide], the Ki was 0.0264 µM.
In the case of `CCCCc1nnc(C(=O)[C@@H](NC(=O)Cn2c(-c3ccc(F)cc3)ncc(N)c2=O)C(C)C)o1` [ONO-PO-706, 2-[5-Amino-6-oxo-2-(4-fluorophenyl)-1,6-dihydro-1-pyrimidinyl]-N-[1-(2-[5-butyl-1,3,4-oxadiazolyl]carbonyl)-2-(S)-methylpropyl]acetamide], the Ki came out at 0.00676 µM.
The compound `CC(C)[C@H](NC(=O)Cn1c(-c2ccccc2)ncc(N)c1=O)C(=O)c1nnc(C2(C)CC2)o1` [ONO-PO-728, 2-[5-Amino-6-oxo-2-phenyl-1,6-dihydro-1-pyrimidinyl]-N-[1-(2-[5-(1-methylcyclopropyl)-1,3,4-oxadiazolyl]carbonyl)-2-(S)-methylpropyl]acetamide] yielded an inhibition constant Ki of 0.00875 µM.
Turning to `CC(C)C[C@@H]1NC(=O)N(CC(=O)N[C@H](C(=O)c2nnc(C(C)(C)C)o2)C(C)C)C1=O` [ONO-PO-708, 4-(S)-(2-Isobutyl)-2,5-imidazolidinedione-N-[1-(2-[5-tert-butyl-1,3,4-oxadiazolyl]carbonyl)-2-(S)-methylpropyl]acetamide], the Ki stood at 0.73 µM.
`CC(C)C(NC(=O)Cn1c(-c2ccccc2)nccc1=O)C(=O)c1nnc(C(C)(C)C)o1` (racemic) [ONO-PO-737, 2-[6-Oxo-2-phenyl)-1,6-dihydro-1-pyrimidinyl]-N-[1-(2-[5-tert-butyl-1,3,4-oxadiazolyl]carbonyl)-2-(R,S)-methylpropyl]acetamide]: the Ki came to 0.0363 µM.
As to `CC(C)[C@H](NC(=O)Cn1c(-c2ccccc2)nccc1=O)C(=O)c1nnc(C(C)(C)C)o1` [ONO-PO-730, 2-[6-Oxo-2-phenyl-1,6-dihydro-1-pyrimidinyl]-N-[1-(2-[5-tert-butyl-1,3,4-oxadiazolyl]carbonyl)-2-(S)-methylpropyl]acetamide], the Ki was 0.0235 µM.
The result for `CC(C)[C@H](NC(=O)CN1C(=O)CN=C(c2ccc(Cl)cc2)c2ccccc21)C(=O)c1nnc(C(C)(C)C)o1` [ONO-PO-717, 2-Oxo-5-(4-chlorophenyl)-1,4-benzodiazepine-N-[1-(2-[5-tert-butyl-1,3,4-oxadiazolyl]carbonyl)-2-(S)-methylpropyl]acetamide] reads 0.0578 µM; that for `CC(C)[C@H](NC(=O)CN1C(=O)N[C@H](C(C)C)C1=O)C(=O)c1nnc(C(C)(C)C)o1` [ONO-PO-719, 4-(R)-Isopropyl-2,5-imidazolidinedione-N-[1-(2-[5-tert-butyl-1,3,4-oxadiazolyl]carbonyl)-2-(S)-methylpropyl]acetamide], 0.836 µM; that for `CC(C)[C@H](NC(=O)Cn1c(-c2cccnc2)ncc(N)c1=O)C(=O)c1nnc(C(C)(C)C)o1` [ONO-PO-712, 2-[5-Amino-6-oxo-2-(3-pyridyl)-1,6-dihydro-1-pyrimidinyl]-N-[1-(2-[5-tert-butyl-1,3,4-oxadiazolyl]carbonyl)-2-(S)-methylpropyl]acetamide], 0.0166 µM.
Turning to `CC(C)[C@H](NC(=O)Cn1c(-c2ccc(F)cc2)ncc(NC(=O)OCc2ccccc2)c1=O)C(=O)c1nnc(C(C)(C)C)o1` [ONO-PO-698, 2-[5-(Benzyloxycarbonyl)amino-6-oxo-2-(4-fluorophenyl)-1,6-dihydro-1-pyrimidinyl]-N-[1-(2-[5-tert-butyl-1,3,4-oxadiazolyl]carbonyl)-2-(S)-methylpropyl]acetamide], the Ki is 0.00077 µM.
Compound `CC(C)[C@H](NC(=O)Cn1c(-c2ccccc2)cccc1=O)C(=O)c1nnc(C(C)(C)C)o1` [ONO-PO-725, 2-[6-Oxo-2-phenyl-1,6-dihydro-1-pyridinyl]-N-[1-(2-[5-tert-butyl-1,3,4-oxadiazolyl]carbonyl)-2-(S)-methylpropyl]acetamide] came in with an inhibitory constant (Ki) of 4.28 µM.
The compound `CC(C)c1nnc(C(=O)[C@@H](NC(=O)Cn2c(-c3ccc(F)cc3)ncc(N)c2=O)C(C)C)o1` [ONO-PO-705, 2-[5-Amino-6-oxo-2-(4-fluorophenyl)-1,6-dihydro-1-pyrimidinyl]-N-[1-(2-[5-isopropyl-1,3,4-oxadiazolyl]carbonyl)-2-(S)-methylpropyl]acetamide] came in with a Ki of 0.0107 µM.
`CC(C)[C@H](NC(=O)Cn1c(-c2cccnc2)ncc(N)c1=O)C(=O)c1nnc(C(C)(C)c2ccccc2)o1` [ONO-PO-715, 2-[5-Amino-6-oxo-2-(3-pyridyl)-1,6-dihydro-1-pyrimidinyl]-N-[1-(2-[5-(α,α-dimethylbenzyl)-1,3,4-oxadiazolyl]carbonyl)-2-(S)-methylpropyl]acetamide]: the affinity, expressed as Ki, was 0.00354 µM.
The compound `CC(C)[C@H](NC(=O)Cn1c(-c2ccc(F)cc2)ncc(N)c1=O)C(=O)c1nnc(C(C)(C)c2ccc(O)c(O)c2)o1` [ONO-PO-701, 2-[5-Amino-6-oxo-2-(4-fluorophenyl)-1,6-dihydro-1-pyrimidinyl]-N-[1-(2-[5-(α,α-dimethyl-3,4-dihydroxybenzyl)-1,3,4-oxadiazolyl]carbonyl)-2-(S)-methylpropyl]acetamide] returned a Ki of 0.00298 µM.
On to `CC(C)[C@H](NC(=O)Cn1c(-c2ccccc2)ncc(N)c1=O)C(=O)c1nnc(C(C)(C)c2ccccc2)o1` [ONO-PO-711, 2-[5-Amino-6-oxo-2-phenyl-1,6-dihydro-1-pyrimidinyl]-N-[1-(2-[5-(α,α-dimethylbenzyl)-1,3,4-oxadiazolyl]carbonyl)-2-(S)-methylpropyl]acetamide], for which the Ki is 0.00255 µM.
`Cc1cccc(Cc2nnc(C(=O)[C@@H](NC(=O)Cn3c(-c4ccc(F)cc4)ncc(NS(C)(=O)=O)c3=O)C(C)C)o2)c1` [ONO-PO-702, 2-[5-(Methylsulfonyl)amino-6-oxo-2-(4-fluorophenyl)-1,6-dihydro-1-pyrimidinyl]-N-[1-(2-[5-(3-methylbenzyl)-1,3,4-oxadiazolyl]carbonyl)-2-(S)-methylpropyl]acetamide] had an inhibitory constant (Ki) of 0.00178 µM.
Take `CC(C)[C@H](NC(=O)Cn1c(-c2ccc(F)cc2)nccc1=O)C(=O)c1nnc(C2(C)CC2)o1` [ONO-PO-734, 2-[6-Oxo-2-(4-fluorophenyl)-1,6-dihydro-1-pyrimidinyl]-N-[1-(2-[5-(1-methylcyclopropyl)-1,3,4-oxadiazolyl]carbonyl)-2-(S)-methylpropyl]acetamide]: the affinity corresponds to a Ki of 0.0438 µM.
The compound `CC(C)[C@H](NC(=O)CN1C(=O)N[C@H](Cc2c[nH]c3ccccc23)C1=O)C(=O)c1nnc(C(C)(C)c2ccccc2)o1` [ONO-PO-724, 4-(R)-(3-Indolemethylene)-2,5-imidazolidinedione-N-[1-(2-[5-(α,α-dimethylbenzyl)-1,3,4-oxadiazolyl]carbonyl)-2-(S)-methylpropyl]acetamide] returned an inhibition constant Ki of 0.0144 µM.
In the case of `CC(C)C[C@@H]1NC(=O)N(CC(=O)N[C@H](C(=O)c2nnc(C(C)(C)c3ccccc3)o2)C(C)C)C1=O` [ONO-PO-709, 4-(S)-(2-Isobutyl)-2,5-imidazolidinedione-N-[1-(2-[5-(α,α-dimethylbenzyl)-1,3,4-oxadiazolyl]carbonyl)-2-(S)-methylpropyl]acetamide] it was 0.0257 µM; in that of `CC(C)[C@H](NC(=O)Cn1c(-c2ccc(F)cc2)ncc(N)c1=O)C(=O)c1nnc(Cc2ccccc2)o1` [ONO-PO-703, 2-[5-Amino-6-oxo-2-(4-fluorophenyl)-1,6-dihydro-1-pyrimidinyl]-N-[1-(2-[5-benzyl-1,3,4-oxadiazolyl]carbonyl)-2-(S)-methylpropyl]acetamide], 0.00225 µM.
